Measured values from article PMC12040169 (PLOS Biology, 2025).

Assay: in vitro
Conditions: human, hela cells, % viability

| SMILES | viability at 28.5 h, 10 µM |
| --- | --- |
| O=C(O)CCc1ccc(-c2ccc(F)cc2)n1-c1cc(Cl)ccc1O [CBK131891] | 92% |
| O=C(O)CCc1ccc(-c2ccc(Br)cc2)n1-c1ccccc1O [CBK131892] | 93.9% |
| COc1ccc(-c2ccc(CCC(=O)O)n2-c2ccc(N(C)C)cc2)cc1 [CBK131895] | 110% |
| COc1ccc(CCC(=O)Nc2cccc(-c3ccc(OC4CCNCC4)cc3)c2)cc1OC [CBK131925T] | 100% |
| CS(=O)(=O)c1ccc(Nc2ccc3c(c2)COC2(CCN(C(=O)Cc4ccc(F)cc4F)C2)O3)cc1 (stereo not shown) [CBK131948] | 90.8% |
| O=C(Cc1cc(F)cc(F)c1F)N1CCC(Sc2ccc(-c3ccccc3)cc2)CC1 [CBK131952] | 94.5% |
| O=C(c1ccc2c(c1)CCO2)N1CCC(Sc2ccc(-c3ccccc3)cc2)CC1 [CBK131953] | 94.8% |
| O=C(c1ccc2c(c1)CCO2)N1CCC(S(=O)(=O)c2ccc(-c3ccccc3)cc2)CC1 [CBK131957] | 109% |
| CC(C)(C)OC(=O)N1CCC2(CC1)NC(=O)c1cc(-c3cccc(S(C)(=O)=O)c3)ccc1O2 [CBK131967] | 102% |
| CC(=O)c1cccc(-c2ccc3c(c2)C(=O)NC2(CCN(C(=O)OC(C)(C)C)CC2)O3)c1 [CBK131969] | 95.4% |
| O=C(c1c(F)cc(-c2cncc(-c3ccc(O)cc3)n2)cc1F)N1CCOCC1 [CBK131973] | 90.5% |
| COc1cc(CN2CCCC3(CCN(C(=O)c4cc(F)c(F)cc4F)C3)C2)cc(OC)c1OC (stereo not shown) [CBK131988] | 101% |
| O=C(c1cc(F)c(F)cc1F)N1CCC2(CCCN(Cc3ccc(Cl)c(Cl)c3)C2)C1 (stereo not shown) [CBK131990] | 95.1% |
| N#Cc1cccc(CN2CCCC3(CCN(C(=O)c4cc(F)c(F)cc4F)C3)C2)c1 (stereo not shown) [CBK131993] | 100% |
| O=C(c1cc(F)c(F)cc1F)N1CCC2(CCCN(CCS(=O)(=O)c3ccccc3)C2)C1 (stereo not shown) [CBK132003] | 105% |
| O=C(c1cc(F)c(F)cc1F)N1CCC2(CCCN(CCCn3c(=O)[nH]c4ccccc43)C2)C1 (stereo not shown) [CBK132004] | 84.9% |

| SMILES | viability at 28.5 h, 10 µM |
| --- | --- |
| O=C1NC(=O)C(CCCCN2CCCC3(CCN(C(=O)c4cc(F)c(F)cc4F)C3)C2)N1 (stereo not shown) [CBK132020] | 97.5% |
| CN(C)C(=O)CN1CCCC2(CCN(C(=O)c3cc(F)c(F)cc3F)C2)C1 (stereo not shown) [CBK132024] | 93.5% |
| Cc1nc(CN2CCCC3(CCN(C(=O)c4cc(F)c(F)cc4F)C3)C2)cs1 (stereo not shown) [CBK132026] | 119% |
| COc1cc(CN2CCCC3(CCN(C(=O)Cc4c[nH]c5ccccc45)C3)C2)cc(OC)c1OC (stereo not shown) [CBK132027] | 99.5% |
| O=C(Cc1c[nH]c2ccccc12)N1CCC2(CCCN(Cc3c(F)cccc3F)C2)C1 (stereo not shown) [CBK132031] | 115% |
| N#Cc1cccc(CN2CCCC3(CCN(C(=O)Cc4c[nH]c5ccccc45)C3)C2)c1 (stereo not shown) [CBK132032] | 103% |
| NC(=O)CCN1CCCC2(CCN(C(=O)Cc3c[nH]c4ccccc34)C2)C1 (stereo not shown) [CBK132041] | 106% |
| O=C(Cc1c[nH]c2ccccc12)N1CCC2(CCCN(CCO)C2)C1 (stereo not shown) [CBK132045] | 95.9% |
| NC(=O)CN1CCCC2(CCN(C(=O)Cc3c[nH]c4ccccc34)C2)C1 (stereo not shown) [CBK132046] | 87.4% |
| O=C(CN1CCCC2(CCN(C(=O)Cc3c[nH]c4ccccc34)C2)C1)Nc1ncccn1 (stereo not shown) [CBK132048] | 86.7% |
| O=C(CN1CCCC2(CCN(C(=O)Cc3c[nH]c4ccccc34)C2)C1)c1ccsc1 (stereo not shown) [CBK132053] | 96.3% |
| O=C1NC(=O)C(CCCCN2CCCC3(CCN(C(=O)Cc4c[nH]c5ccccc45)C3)C2)N1 (stereo not shown) [CBK132059] | 83.8% |
| Cc1ccc2cc(CN(Cc3ccccc3)C(=O)NCc3c(Cl)cccc3Cl)c(=O)[nH]c2c1C [CBK132088] | 81.8% |
| CCN(CC)Cc1ccc2[nH]c(=O)c(CNCc3ccc(OC)cc3)cc2c1 [CBK132113] | 106% |
| O=C(c1cc(F)c(F)cc1F)N1CCC2(CCN(Cc3nc4ccccc4[nH]3)C2)C1 (stereo not shown) [CBK132134] | 89.9% |
